Experimental data as given in patent publication US10172815B2, “Targeted treatment of anerobic cancer” (UNIVERSITY HOSPITALS CLEVELAND MEDICAL CENTER, priority 2013, dated 2019).
Values joined by “and” are separate entries in the source; they are usually repeats but may differ in a detail not shown here. Identical values can stand only once.

How the values were obtained:
N1-S1 hepatoma = experiment: Additional comparison study, hepatocellular rat model, TAE combined with anti-glycolytic agents (Example 2); format: in vivo, Sprague Dawley rats; details: over four weeks
Method: To determine if anti-glycolytic agents (AG) combined with transarterial embolization (TAE) improves treatment of an N1-S1 tumor model implanted in Sprague-Dawley rat livers. The animal experiments were approved by the Institutional Animal Care and Use Committee. […] The agents were slowly injected within 2 minutes. […] Tumor volume (V) was calculated by the formula: V=0.5*L*W*H. Relative tumor volume after treatment was calculated as the percentage of pre-treatment tumor volume. Kruskal-Wallis test with Minitab 16 was used to compare the difference of relative tumor volume between 4 groups on each observation time point.

[1] = test system: HT29 colon cancer xenografts; experiment: DCE-MRI with GODP, AATH model, tumor vascularity; format: in vivo, athymic nude mice; details: 3-week time point; 10 mg/kg i.p. daily; entire tumor; mean±SD
From the text: (§1) Dynamic contrast-enhanced (DCE) MRI is a non-invasive imaging technique that is able to quantify the anatomical and physiological progression of tumor angiogenesis in response to a variety of different cancer therapies. In order to allow for the safe use of macromolecular contrast medium, a novel polydisulfide-based agent, poly([(Gd-DOTA)-DETA]-co-DTBP) (GODP) was designed, which initially starts as a macromolecular agent during an DCE-MRI protocol, and is then gradually degraded by endogenous thiols in the reductive environment of the bloodstream to improve renal clearance. In this study, two groups of 3 mice, bearing flank HT29 colon cancer xenografts, were treated daily with either bumetanide or saline for a total of 3 weeks. DCE-MRI was performed before and after the start of treatment on a weekly basis, and the collected was analyzed using the adiabiatic approximation to the tissue homogeneity (AATH) model. IHC and western blot analysis was performed to study the changes in CD31, VEGF, and tissue hypoxia.
The anti-angiogenic effects of bumetanide were investigated in a mouse model bearing subcutaneous HT29 colon adenocarcinoma xenografts. HT29 cells were initially cultured in McCoy's 5A growth media (ATCC), supplemented with 10% FBS, […] of streptomycin, and 100 units/mL of penicillin (Invitrogen). A total of 1×10^6 cells were then inoculated into athymic nude mice in a 250 μL volume of Matrigel (BD Biosciences). Before the start of treatment, tumors were allowed to grow for 10 days, until they were approximately 0.5 cm in diameter. This study comprised of 2 groups of 3 mice, one of which was treated with bumetanide, and the other with a saline control. […] Tumor growth was measured at several time points during the therapy with a caliper. Volumes were calculated using the formula […], where D1 and D2 were two diameters measured along perpendicular axes of the tumor lesion.
Changes in the tumor vascularity were monitored during the treatment by DCE-MRI. […]

VEGF = experiment: Western blot and IHC of VEGF in tumor tissue; format: in vivo, athymic nude mice; details: after 3 weeks of therapy; western blot; vs saline control
From the text: as §1, with “hypoxia. […] Image J software was utilized to quantify the relative protein expression of HIF-1α from the blots by calculating the total pixel intensity from each protein band, and then normalizing these signals with its corresponding β-actin stain. […]” for “hypoxia.”

HIF-1α = experiment: Western blot of HIF-1α in tumor tissue; format: in vivo, athymic nude mice; details: after 3 weeks of therapy, vs saline control
Method: (§2) Once the final DCE-MRI scans were complete at the end of the therapy, the mice were intravenously injected with 60 mg/kg of pimonidazole, an established marker for the detection of tissue hypoxia. After one hour following the pimonidazole staining, the tumors from these mice were resected for further biological analysis. Half of each tumor that was collected was snap-frozen in liquid nitrogen for western blot, while the other half was sliced into thin sections and formalin-fixed/paraffin-imbedded for immunohistochemistry (IHC) staining. For western blot, cell lysates from the frozen tissue were prepared by homogenizing entire tumor tissues in RIPA lysis buffer supplemented with a Halt protease inhibitor cocktail (Thermo Fisher Scientific). […] The blots were blocked for 1 hr and then stained overnight at 4° C. with primary antibodies for HIF-1α and β-actin, the latter of which serving as the housekeeper control. Image J software was utilized to quantify the relative protein expression of HIF-1α from the blots by calculating the total pixel intensity from each protein band, and then normalizing these signals with its corresponding β-actin stain. Sections of the formalin-fixed tissue were stained with the antibodies for CD31 and the Ki67 nuclear proliferation marker. They were also stained with a primary antibody for the detection of the pimonidazole hypoxia marker. […]

CD31 = experiment: IHC stain for CD31 in tumor tissue; format: in vivo, athymic nude mice; details: after 3-week therapy, tumor periphery and core, vs saline control
Method: as §2

Ki67 = experiment: IHC stain for Ki67 proliferation marker in tumor tissue; format: in vivo, athymic nude mice; details: after 3-week therapy, mean±SD
Method: Once the final DCE-MRI scans were complete at the end of the therapy, the mice were intravenously injected with 60 mg/kg of pimonidazole, an established marker for the detection of tissue hypoxia. After one hour following the pimonidazole staining, the tumors from these mice were resected for further biological analysis. Half of each tumor that was collected was snap-frozen in liquid nitrogen for western blot, while the other half was sliced into thin sections and formalin-fixed/paraffin-imbedded for immunohistochemistry (IHC) staining. For western blot, cell lysates from the frozen tissue were prepared by homogenizing entire tumor tissues in RIPA lysis buffer supplemented with a Halt protease inhibitor cocktail (Thermo Fisher Scientific). […] Image J software was utilized to quantify the relative protein expression of HIF-1α from the blots by calculating the total pixel intensity from each protein band, and then normalizing these signals with its corresponding β-actin stain. […]
Despite the fact that bumetanide inhibited angiogenesis and induced vascular regression, the therapy was not able to slow down the tumor growth rate over the course of the study. […] A Ki67 index was calculated by determining the percentage of nuclei in a given area of the tissue expressed this factor.

[2] = test system: HT29 colon cancer xenografts; experiment: Pimonidazole staining of tumor hypoxia; format: in vivo, athymic nude mice; details: after 3-week therapy; vs saline control
Method: as §2

[3] = test system: HT29 colon adenocarcinoma xenografts; experiment: Tumor growth measured with a caliper; format: in vivo, athymic nude mice; details: any point during the 3-week administration period
Method: The anti-angiogenic effects of bumetanide were investigated in a mouse model bearing subcutaneous HT29 colon adenocarcinoma xenografts. HT29 cells were initially cultured in McCoy's 5A growth media (ATCC), supplemented with 10% FBS, […] of streptomycin, and 100 units/mL of penicillin (Invitrogen). A total of 1×10^6 cells were then inoculated into athymic nude mice in a 250 μL volume of Matrigel (BD Biosciences). Before the start of treatment, tumors were allowed to grow for 10 days, until they were approximately 0.5 cm in diameter. This study comprised of 2 groups of 3 mice, one of which was treated with bumetanide, and the other with a saline control. The drug and saline control were injected intraperitoneally on a daily basis for 3 weeks, with a bumetanide dose of 10 mg/kg. All mice were sacrificed on day 21 of the treatment regimen. Tumor growth was measured at several time points during the therapy with a caliper. Volumes were calculated using the formula […], where D1 and D2 were two diameters measured along perpendicular axes of the tumor lesion.

Structure (SMILES) | relative tumor volume comparing the different treatments (FIG. 25) (N1-S1 hepatoma) | average decrease in Fp (blood flow rate) between pre- and post-treatment levels [1] [%] | average reduction in PS (permeability-surface area product) from pre-treatment level [1] [%] | average reduction in Vp (fractional plasma volume) from pre-treatment level [1] [%] | VEGF protein levels lower than in control tumors (VEGF) [%] | HIF-1α expression greater than in control tumors (HIF-1α) | CD31 expression (CD31) | Ki67 index (percentage of nuclei expressing Ki67) (Ki67) [%] | tumor hypoxia (pimonidazole staining intensity) [2] | tumor size versus saline control [3]
COc1cc(/C=C/C(=O)O)ccc1O [ferulic acid] | effective at reducing tumor volume |  |  |  |  |  |  |  |  | 
O=C(O)/C=C/c1ccc(O)c(O)c1 [caffeic acid] | effective at reducing tumor volume |  |  |  |  |  |  |  |  | 
CCCCNc1cc(C(=O)O)cc(S(N)(=O)=O)c1Oc1ccccc1 [bumetanide, 3-butylamino-4-phenoxy-5-sulfamoyl-benzoic acid] | effective at reducing tumor volume | 71.2±8.01 | 72.2±9.26 | 75.6±8.97 | 42.9 | 59.1% and 59.2% | significant decrease | ~24.7±4.51 | increase | no significant difference
